The results in this text go back to ChEMBL document CHEMBL4385594, “4(3H)-Quinazolinone derivatives: Promising antibacterial drug leads” (Eur J Med Chem, 2019).

The subject of data set [1] is Escherichia coli. The experiment in a line: Antibacterial activity against Escherichia coli assessed as diameter of zone inhibition at 100 ppm by disc diffusion method. The data set is classed as functional. The conditions noted are these: read-out: DIZ.
Data set [2] has as its system Staphylococcus aureus. The data set can be described thus: Antibacterial activity against Staphylococcus aureus assessed as diameter of zone inhibition at 100 ppm by disc diffusion method. The data set is classed as functional. The conditions noted are these: read-out: DIZ. (Agar diffusion results depend on both activity and mobility in agar.)
Data set [3] relates to Staphylococcus aureus. The data set can be described thus: Antibacterial activity against Staphylococcus aureus assessed as reduction in bacterial cell growth at 0.03 to 64 ug/ml incubated for 16 to 18 hrs by CLSI broth dilution method. The data set is classed as functional. Background: Broth dilution looks for growth in wells or tubes with falling amounts of substance.
In data set [4] the test system is Acinetobacter baumannii. The experiment in a line: Antibacterial activity against multidrug-resistant Acinetobacter baumannii assessed as reduction in bacterial cell growth incubated for 24 hrs by broth dilution method. The data set is classed as functional.
A short description of data set [5]: Cytotoxicity against human HepG2 cells assessed as reduction in cell viability at 0 to 50 uM incubated for 48 hrs by MTT assay. The data set is classed as cell-based. The conditions noted are these: read-out: LD50. Background: Tetrazolium dyes change colour on reduction, which living cells bring about.
Data set [6] deals with Acinetobacter baumannii. The experiment in a line: Antibacterial activity against Acinetobacter baumannii 1646 infected in mouse model of peritonitis assessed as increase in survival rate at 2 mg/kg, ip dosed at 1 hr post infection (reference value: 66%). The data set is classed as functional. The note with it: Acinetobacter baumannii, 1646, ip.
Data set [7] relates to Staphylococcus aureus. The experiment in a line: Antibacterial activity against Staphylococcus aureus ATCC 25923 assessed as reduction in bacterial cell growth at 0.03 to 64 ug/ml incubated for 16 to 18 hrs by CLSI broth dilution method. It is filed as functional.
Data set [8] concerns Escherichia coli. The experiment in a line: Antibacterial activity against Escherichia coli ATCC 25922 assessed as reduction in bacterial cell growth at 0.03 to 64 ug/ml incubated for 16 to 18 hrs by CLSI broth dilution method. It is filed as functional.
The test system of data set [9] is Pseudomonas aeruginosa. The experiment in a line: Antibacterial activity against Pseudomonas aeruginosa ATCC 27853 assessed as reduction in bacterial cell growth at 0.03 to 64 ug/ml incubated for 16 to 18 hrs by CLSI broth dilution method. It is filed as functional.
Another data set relates to Enterococcus faecalis. The data set can be described thus: Antibacterial activity against Enterococcus faecalis ATCC 29212 assessed as reduction in bacterial cell growth at 0.03 to 64 ug/ml incubated for 16 to 18 hrs by CLSI broth dilution method. It is filed as functional.
For data set [10], the system named is Staphylococcus aureus. The experiment in a line: Antibacterial activity against Staphylococcus aureus. The data set is classed as functional.
In data set [11] the test system is Staphylococcus aureus. The experiment in a line: Antibacterial activity against Staphylococcus aureus assessed as inhibition zone. It is filed as functional.
The next data set relates to MCF7. The experiment in a line: Cytotoxicity against human MCF7 cells assessed as reduction in cell viability at 0.1 to 100 uM by MTT assay. It is filed as functional, cell-based.
Data set [12] concerns Staphylococcus aureus. The data set can be described thus: Antibacterial activity against Staphylococcus aureus NCIM 2901 assessed as reduction in bacterial cell growth at 0.03 to 64 ug/ml incubated for 16 to 18 hrs by CLSI broth microdilution method. It is filed as functional.
Another data set relates to Bacillus subtilis. The data set can be described thus: Antibacterial activity against Bacillus subtilis MTCC 441 assessed as reduction in bacterial cell growth at 0.03 to 64 ug/ml incubated for 16 to 18 hrs by CLSI broth microdilution method. It is filed as functional.
Data set [13] relates to Pseudomonas aeruginosa. The data set can be described thus: Antibacterial activity against Pseudomonas aeruginosa NCIM 2036 assessed as reduction in bacterial cell growth at 0.03 to 64 ug/ml incubated for 16 to 18 hrs by CLSI broth microdilution method. It is filed as functional.

Usually MIC stands for the lowest concentration that inhibits growth of the organism. The pIC50 is the negative decadic logarithm of the IC50, by convention in mol/L.

pIC50: −log10 of the molar value. ≈ marks a conversion by molar mass, not a printed value.

Turning to `CN(C)[C@@H]1C(O)=C(C(N)=O)C(=O)[C@@]2(O)C(O)=C3C(=O)c4c(O)cccc4[C@@](C)(O)[C@H]3C[C@@H]12` [TETRACYCLINE], the zone of inhibition at 100 ppm with Escherichia coli [1] is 6 to 27 mm; with Staphylococcus aureus [2], 12 to 24 mm.

With `N#Cc1ccc(/C=C/c2nc3ccccc3c(=O)n2-c2cccc(C(=O)NC3CC3)c2)cc1`, the minimal inhibitory concentration (MIC) with Staphylococcus aureus [3] turned out to be 0.5 µg/mL (≈ 1.16 µM).

On to `CNc1nc(NCc2ccccc2)nc2cc(Br)ccc12`, for which the MIC with Acinetobacter baumannii [4] was found to be 0.5 µM (≈ 0.172 µg/mL). In addition, in [5], the CC50 at 48 h came out at 23 µM. Also, in the data set with Acinetobacter baumannii [6], the survival at 2 mg/kg was 90%.

As to `CNc1nc(NCc2ccccc2)nc2ccc(Cl)cc12`, the MIC in the data set on Acinetobacter baumannii [4] was 0.5 µM (≈ 0.149 µg/mL). Also, the CC50 at 48 h in [5] was determined as 23 µM. The survival at 2 mg/kg with Acinetobacter baumannii [6] came to 90%.

For the molecule `Cc1nc2ccc(I)cc2c(=O)n1/N=C/c1cc(I)cc(I)c1O`, the zone of inhibition at 100 ppm came to 16 mm in the data set on Escherichia coli [1] and 14 mm with Staphylococcus aureus [2].

With `Cc1cccc(-n2cc(COc3cccc(-n4c(/C=C/c5ccc(C#N)cc5)nc5ccccc5c4=O)c3)nn2)c1`, the MIC in the data set on Staphylococcus aureus [3] was found to be 0.5 µg/mL (≈ 0.932 µM).

For `N#Cc1ccc(/C=C/c2nc3ccccc3c(=O)n2-c2cccc(OCc3cn(Cc4cccc(Br)c4)nn3)c2)cc1`, the MIC in the data set on Staphylococcus aureus [3] came to 0.5 µg/mL (≈ 0.812 µM).

In the case of `O=c1c2c(Br)cc(Br)cc2nc(-c2ccccc2)n1-c1nc2cc(Cl)ccc2s1`, the MIC in the data set on Staphylococcus aureus [7], with Escherichia coli [8], with Pseudomonas aeruginosa [9] and with Enterococcus faecalis was 1.2 to 9 µg/mL (≈ 2.19 to 16.4 µM) throughout.

Regarding `Cc1cccc2c(=O)n(-c3cccc(C(=O)O)c3)c(/C=C/c3ccc(C#N)cc3)nc12`, in the data set on Staphylococcus aureus [3], the MIC amounted to 2 µg/mL (≈ 4.91 µM).

As to `Cc1nc2ccccc2c(=O)n1-c1cccc(C(=O)NC2CC2)c1`, in the data set on Staphylococcus aureus [3], the MIC was > 64 µg/mL.

With `N#Cc1ccc(/C=C/c2nc3ccccc3c(=O)n2-c2cccc(C#N)c2)cc1`, in the data set with Staphylococcus aureus [3], the MIC worked out at 0.5 µg/mL (≈ 1.34 µM).

As to `CN(C)/C=C/c1nc2ccccc2c(=O)n1-c1cccc(C(=O)NC2CC2)c1`, in the data set on Staphylococcus aureus [3], the MIC was > 64 µg/mL.

Turning to `Cc1ccc2c(c1)c(=O)n(-c1ccccc1)c1n[nH]c(=S)n21`, in the data set on Staphylococcus aureus [10], the minimal inhibitory concentration (MIC) came out at 32 µg/mL (≈ 104 µM). Further, the “inhibition zone (IZ)” value with Staphylococcus aureus [11] came to 17 mm.

On to `O=c1c2c(Br)cc(Br)cc2nc(-c2ccccc2)n1-c1nc2ccc(Br)cc2s1`, for which the MIC with Staphylococcus aureus [7], in the data set on Escherichia coli [8], with Pseudomonas aeruginosa [9] and with Enterococcus faecalis was 1 to 8.5 µg/mL (≈ 1.69 to 14.4 µM) each time.

With `C#CCOc1cccc(-n2c(/C=C/c3ccc(C#N)cc3)nc3ccccc3c2=O)c1`, the MIC in the data set on Staphylococcus aureus [3] is 0.25 µg/mL (≈ 0.62 µM).

Take `N#Cc1ccc(/C=C/c2nc3ccccc3c(=O)n2-c2cccc(OCc3cn(Cc4ccccc4)nn3)c2)cc1`: in the data set on Staphylococcus aureus [3], the MIC was 0.5 µg/mL (≈ 0.932 µM).

`C#CCOc1cccc(-n2c(/C=C/c3ccc(C#N)cc3)nc3c(C)cccc3c2=O)c1`: in the data set with Staphylococcus aureus [3], the MIC was 1 µg/mL (≈ 2.4 µM).

As to `O=c1c2ccccc2nc(/C=C/c2ccc(Cl)cc2)n1-c1cccc(OCc2cn(-c3cccc(F)c3)nn2)c1`, the MIC in the data set with Staphylococcus aureus [3] was 4 µg/mL (≈ 7.27 µM).

Turning to `Cn1cc[n+](C(Cn2cnc3ccc(Cl)cc3c2=O)c2cc3ccccc3o2)c1` (centres undefined), in the data set with MCF7, the negative logarithm of the IC50 (pIC50) is 6.00 to 6.24.

For the molecule `N#Cc1ccc(/C=C/c2nc3ccccc3c(=O)n2-c2cccc(OCc3cn(-c4cccc(Cl)c4)nn3)c2)cc1`, in the data set on Staphylococcus aureus [3], the MIC was found to be 0.5 µg/mL (≈ 0.898 µM).

Consider `CNc1nc(NCc2ccccc2)nc2cc(Cl)ccc12`, for which the minimal inhibitory concentration (MIC) in the data set on Acinetobacter baumannii [4] stood at 0.5 µM (≈ 0.149 µg/mL). Besides, the CC50 at 48 h in [5] is 23 µM. Further, the survival at 2 mg/kg in the data set on Acinetobacter baumannii [6] amounted to 90%.

Regarding `Cc1ccccc1NC(=O)Nn1c(-c2ccccc2)nc2ccccc2c1=O`, the MIC in the data set with Staphylococcus aureus [12], in the data set on Bacillus subtilis and with Pseudomonas aeruginosa [13] was 1.56 µg/mL (≈ 4.21 µM) in each case.

As for `N#Cc1ccc(/C=C/c2nc3ccccc3c(=O)n2-c2cccc(OCc3cn(Cc4ccc(Br)cc4)nn3)c2)cc1`, the MIC with Staphylococcus aureus [3] is 16 µg/mL (≈ 26 µM).

As to `N#Cc1ccc(/C=C/c2nc3ccccc3c(=O)n2-c2cccc(C(=O)N3CCOCC3)c2)cc1`, the MIC in the data set on Staphylococcus aureus [3] is 8 µg/mL (≈ 17.3 µM).

For `N#Cc1ccc(/C=C/c2nc3ccccc3c(=O)n2-c2cccc(OCc3cn(-c4cccc(C(=O)O)c4)nn3)c2)cc1`, the MIC in the data set with Staphylococcus aureus [3] is 4 µg/mL (≈ 7.06 µM).

As to `N#Cc1ccc(/C=C/c2nc3ccccc3c(=O)n2-c2ccc(O)cc2)cc1`, the MIC with Staphylococcus aureus [3] is 8 µg/mL (≈ 21.9 µM).

Turning to `N#Cc1ccc(/C=C/c2nc3ccccc3c(=O)n2-c2cccc(C(=O)N3CCCC3)c2)cc1`, in the data set on Staphylococcus aureus [3], the MIC was found to be 4 µg/mL (≈ 8.96 µM).

In the case of `CNc1nc(NCc2ccccc2)nc2ccc(Br)cc12`, the MIC with Acinetobacter baumannii [4] worked out at 0.5 µM (≈ 0.172 µg/mL). The CC50 at 48 h in [5] was determined as 23 µM. The survival at 2 mg/kg in the data set with Acinetobacter baumannii [6] was determined as 90%.

`Cc1ccc2c(c1)c(=O)n(-c1ccccc1)c1nnc(-c3ccccc3)n21` gave an MIC in the data set on Staphylococcus aureus [10] of 32 µg/mL (≈ 90.8 µM). Further, in the data set on Staphylococcus aureus [11], the “inhibition zone (IZ)” value is recorded as 17 mm.
